{"source": "patent US10111822B2", "about": "“External dermal composition for anti-ageing and method for producing the same” (Hayashibara Co., Ltd., priority 2012, dated 2018)", "key": {"[1]": {"tested_on": "Dickkopf-1 (DKK1)", "test": "Production of DKK1 in NHDF cells (ELISA)", "type": "cell-based, human", "conditions": "for DKK1 Production level, First day: n=3, control 0.115 ± 0.012; for DKK1 Production level, Third day: n=3, control 0.217 ± 0.021", "protocol": "NHDF Cells, which had been diluted with a culture medium to give a cell density of 1×10^4 cells/well, were inoculated to 96-well plates. At 24 hours after the inoculation, the supernatant in each well of the plates was removed, followed by adding ascorbic acid 2-glucoside to each well of the plates to give a final concentration of 0.5, 1, 2, 4, or 8 mM. As a control, a cell culture system with no addition of ascorbic acid 2-glucoside was provided. At the first and third days of culturing after the addition of ascorbic acid 2-glucoside, the supernatant in each well of the plates was collected and quantified (n=3) for DKK1 with “RayBio”, a product name of an ELISA for DKK1 assay, commercialized by RayBiotech Inc., Georgia, USA. Statistical analysis of the data was performed by t-test (see “Kiso-Tokeigaku (Basic Statistics) III Statistics of Natural Science”, page 187, 2008, edited by University of Tokyo Press)."}, "[2]": {"tested_on": "Microphthalmia-associated transcription factor (MITF)", "test": "MITF and phosphorylated MITF in B16 cells (Western)", "type": "cell-based, mouse", "conditions": "2 h; for (Phosphorylated MITF)/(MITF): control 0.90; for Phosphorylated MITF / MITF: β-actin regarded as 100%; for Phosphorylated MITF: control 73; for MITF: control 81", "protocol": "Test solutions were prepared by dissolving ascorbic acid 2-glucoside (a reagent grade specimen commercialized by Hayashibara Co., Ltd., Okayama, Japan) or L-ascorbic acid (a special reagent grade specimen commercialized by Wako Pure Chemical Industries, Ltd., Tokyo, Japan) in Dulbecco's MEM medium supplemented with 10% v/v fetal calf serum and an antibiotic (abbreviated as “D-MEM medium”, hereinafter) to give a final concentration of 2.0 or 8.0 mM.\nContinuously-cultivated B16 cells in D-MEM medium were collected, resuspended in D-MEM medium, inoculated to 6-well plates in an amount of 1×10^5 cells/2 mL/well, and cultured for 24 hours. Thereafter, the culture supernatants were removed by sucking, and any of the test solutions was added to each plate in a volume of 2 mL/well, followed by culturing the cells for two hours. As a control, cells in other plates were added with only D-MEM medium in a volume of 2 mL/plate and cultured for two hours. To each plate, which had been removed its culture supernatant, an ice-chilled Dulbecco's PBS (−), commercialized by Nissui Pharmaceutical Co., Ltd., Tokyo, Japan, was added to wash cells, and the resulting cells were added with a SDS-sample buffer containing 62.5 mM Tris-HCl (pH 6.8), 2% w/v SDS, 10% w/v glycerol, 50 mM dithiothreitol (DTT), and 0.01% w/v bromophenol blue in a volume of 0.1 mL/well, and collected with a scraper. The resulting cell suspension was treated with an ultrasonicator, commercialized by Osminics Inc., Minnesota, USA, and subjected to SDS-polyacrylamide gel electrophoresis. The proteins in the gel were electrically transferred to a nitrocellulose membrane and allowed to sequentially react with a first antibody (Anti-phospho-MITF […] or Anti MITF), a secondary antibody, and LumiGLO™ in this order, followed by allowing to expose an X-ray film for detecting MITF positive bands. The bands thus detected were subjected to band strength analysis using Scion Image to determine the quantity of MITF and phosphorylated MITF. For every B16 cell culture, a 5% v/v CO2 incubator was used. Relative amounts of MITF and phosphorylated MITF and the ratio of phosphorylated MITF against MITF were determined when the level of β-actin in B16 cells upon culturing with each of the test solutions was regarded as 100%."}, "[3]": {"tested_on": "hyaluronic acid", "test": "Hyaluronic acid production in NHEK cells (ELISA)", "type": "cell-based, human", "conditions": "3 days, control 1003 ± 111.6", "from_the_text": "In accordance with “Evaluation Method for Enhancing Hyaluronic acid Synthesis” disclosed in “Evaluation and Experimental Manual for Humectancy, Skin whitening, Anti-wrinkle, and Anti-oxidation”, edited by Hitoshi Masaki, published by Fragrance Journal, pp. 94 to 97, 2012, NHEK cells as a model for typical normal human epidermal cells were suspended in EpiLife medium (pH 7.4), commercialized by Invitrogen Corporation, Calif., USA, inoculated to 12-well microplates at a cell density of 5×10^4 cells/well, and incubated overnight under conditions of 37° C. and 5% v/v CO2. Thereafter, the cell culture medium was replaced with a fresh HuMedia-KG2 medium commercialized by Kurabo Industries Ltd., Osaka, Japan; and “AA2G”, a particulate composition containing anhydrous crystalline ascorbic acid 2-glucoside, commercialized by Hayashibara Co., Ltd., Okayama, Japan, was added to each well to give a final concentration of 0.25, 0.5, or 1 mM, followed by culturing the cells for three days under the conditions of 37° C. and 5% v/v CO2. After completion of the culture, the supernatant in each well was immediately collected and quantified for hyaluronic acid by “Hyaluronan, DuoSet Kit”, product code: DY3614, a product name of a commercialized enzyme-linked immunosorbent assay (ELISA) purchased from R & D Systems, Minneapolis, USA. As a control, there was provided a culture system, where cells are cultured similarly as above except for not adding ascorbic acid 2-glucoside."}}, "data": [{"smiles": "O=C1O[C@H]([C@@H](O)CO)C(O)=C1O[C@H]1O[C@H](CO)[C@@H](O)[C@H](O)[C@H]1O", "note": "[ascorbic acid 2-glucoside, 2-O-α-D-glucosyl-L-ascorbic acid]", "values": [{"measurement": "DKK1 Production level, First day", "setting": "[1]; 0.5 mmol/L", "result": "0.117 ± 0.018", "unit": "ng/mL"}, {"measurement": "DKK1 Production level, Third day", "setting": "[1]; 0.5 mmol/L", "result": "0.317 ± 0.035", "unit": "ng/mL"}, {"measurement": "DKK1 Production level, First day", "setting": "[1]; 1 mmol/L", "result": "0.129 ± 0.017", "unit": "ng/mL"}, {"measurement": "DKK1 Production level, Third day", "setting": "[1]; 1 mmol/L", "result": "0.315 ± 0.042", "unit": "ng/mL"}, {"measurement": "DKK1 Production level, First day", "setting": "[1]; 2 mmol/L", "result": "0.149 ± 0.037", "unit": "ng/mL"}, {"measurement": "DKK1 Production level, Third day", "setting": "[1]; 2 mmol/L", "result": "0.339 ± 0.030", "unit": "ng/mL"}, {"measurement": "DKK1 Production level, First day", "setting": "[1]; 4 mmol/L", "result": "0.146 ± 0.016", "unit": "ng/mL"}, {"measurement": "DKK1 Production level, Third day", "setting": "[1]; 4 mmol/L", "result": "0.392 ± 0.014", "unit": "ng/mL"}, {"measurement": "DKK1 Production level, First day", "setting": "[1]; 8 mmol/L", "result": "0.179 ± 0.032", "unit": "ng/mL"}, {"measurement": "DKK1 Production level, Third day", "setting": "[1]; 8 mmol/L", "result": "0.413 ± 0.033", "unit": "ng/mL"}, {"measurement": "(Phosphorylated MITF)/(MITF)", "setting": "[2]; 2.0 mM", "result": 0.60}, {"measurement": "Phosphorylated MITF", "setting": "[2]; 2.0 mM", "result": 59, "unit": "%"}, {"measurement": "MITF", "setting": "[2]; 2.0 mM", "result": 99, "unit": "%"}, {"measurement": "(Phosphorylated MITF)/(MITF)", "setting": "[2]; 8.0 mM", "result": 0.36}, {"measurement": "Phosphorylated MITF", "setting": "[2]; 8.0 mM", "result": 36, "unit": "%"}, {"measurement": "MITF", "setting": "[2]; 8.0 mM", "result": 101, "unit": "%"}, {"measurement": "Hyaluronic acid concentration in culture supernatant", "setting": "[3]; 0.25 mM", "result": "1222 ± 93.6", "unit": "ng/mL"}, {"measurement": "Hyaluronic acid concentration in culture supernatant", "setting": "[3]; 0.5 mM", "result": "1268 ± 125.2", "unit": "ng/mL"}, {"measurement": "Hyaluronic acid concentration in culture supernatant", "setting": "[3]; 1 mM", "result": "1436 ± 216", "unit": "ng/mL"}]}]}
